# In patent US20220125764A1, “PHARMACEUTICAL COMPOSITION COMPRISING BENZIMIDAZOLE DERIVATIVE COMPOUND” (HK INNO.N CORPORATION, priority 2019, published 2022):
# Assays:
# [1] = system: erosive gastroesophageal reflux disease; assay: Double-blinded, randomized, active-controlled maintenance therapy trial in subjects with treated erosive gastroesophageal reflux disease (Example 2); assay type: in vivo, human; conditions: for subjects with erosion observed by upper gastrointestinal endoscopy: test group (tegoprazan 25 mg, at least 17 subjects) and control group (lansoprazole 15 mg) pooled, total 37 subjects; for symptom evaluation: symptoms of heartburn and gastric acid reflux while taking the drug: all the subjects of the group, once a day for four weeks, tegoprazan 25 mg, lansoprazole 15 mg
# Procedure: A double-blinded, randomized and active controlled study was designed to identify an effect of 25 mg of tegoprazan on maintenance therapy for gastroesophageal reflux disease.
# (2) a person who is diagnosed with erosive gastroesophageal reflux disease (LA grade A-D) through upper gastrointestinal endoscopy within 12 weeks based on random group allocation (visit 2);
# (3) a person who is identified as having erosive gastroesophageal reflux disease treated through upper gastrointestinal endoscopy within seven days based on random group allocation (visit 2) (a person who is identified the cure of erosion after administration of a standard dose of therapeutic agents for erosive gastroesophageal reflux disease (PPI, P-CAB, etc.) for 4-8 weeks due to a typical symptom of gastroesophageal reflux disease and erosive gastroesophageal reflux disease);
# The clinical trial was performed in a double-blinded, randomized, active-controlled and multi-center clinical trial manner, and the clinical trial may be schematized as shown in FIG. 1.
# The subjects were classified using stratified block randomization based on LA grades identified by upper gastrointestinal endoscopy performed within 12 weeks before the random allocation on visit (visit 2). Each group was administered with the drug for 24 weeks.
# As identified in the table above, the test group was orally dosed with 25 mg of tegoprazan tablet (Preparation Example 1)/lansoprazole 15 mg placebo (Preparation Example 4), and the control group was orally dosed with 25 mg of tegoprazan placebo (Preparation Example 2)/lansoprazole 15 mg capsule (Preparation Example 3).
# The subjects randomly allocated to each group took the prescribed clinical trial drug once a day at a regular time from the first day of prescription. A diary on the trial subjects was kept from the start day of taking the clinical trial drug.
# During a visit in 4 weeks (visit 3), 12 weeks (visit 4) and 24 weeks (visit 5) later, subjects paid a visit on an empty stomach without taking the clinical trial drug, then received a scheduled test, then were newly prescribed the same drug, then took it from the very day, then received a test in their visit in 24 weeks (visit 5) later, and then stopped the administration.
# In four weeks (visit 3) after administering the clinical trial drug, endoscopy was not performed, but clinical laboratory tests (hematologic test, blood chemistry test, blood coagulation test, urine test, hepatitis test, etc.) and evaluation of symptoms were performed. In 12 weeks (visit 4) and 24 weeks (visit 5) later, it was checked whether erosion recurred or not through the upper gastrointestinal endoscopy, and the clinical laboratory test, evaluation of symptoms and the like were performed. Clinical trial subjects took the clinical trial drug for up to 24 weeks and then entered into a safety follow-up (f/u) period, in which the f/u was performed (by phone or visit) in two weeks after the last administration.
# (1) Endoscopic remission: No recurrence of erosion (LA grade A-D) observed through upper gastrointestinal endoscopy during a maintenance period (12 weeks)
# (1) Rate of subjects without main symptoms (heartburn and gastric acid reflux)
# Rate of subjects without main symptoms=(Subjects without main symptoms expressed/Number of clinical trial subjects whose symptoms were evaluated during a maintenance period after administration of the clinical trial drug)×100
# gastric pH = assay: 24-hour gastric pH monitoring after repeated oral dosing in healthy male volunteers (Example 1); assay type: in vivo, human; conditions: for HTR > pH4 (%) Mean: time for which pH of gastric fluid exceeds and maintains 4 based on 24 hours: healthy male volunteers
# Procedure: Tegoprazan and esomeprazole were orally administered for 7 days as shown in table 1 (an open-label, active controlled, parallel design and repeated dose).
# There occurred neither serious adverse reactions nor dropouts caused thereby while this clinical trial was in progress. With regard to a gastric pH, a time for which the gastric pH exceeds 4 was evaluated during an observation period for the gastric pH.
# After evaluating pharmacokinetic parameters, the time (%) for which a pH of gastric fluid exceeds and maintains 4 based on 24 hours is the same as shown in the following table 2.
Compound,subjects with erosion observed by upper gastrointestinal endoscopy ([1]; 12 weeks),symptom evaluation: symptoms of heartburn and gastric acid reflux while taking the drug [1],"maintenance effect after four weeks of administration ([1]; 25 mg once a day, 4 weeks)","maintenance effect (endoscopic remission maintenance) after twelve weeks of administration ([1]; 25 mg once a day, 12 weeks)","inhibition of the recurrence of gastroesophageal reflux disease ([1]; 25 mg, conclusion from 12-week endoscopy)","HTR > pH4 (%) Mean: time for which pH of gastric fluid exceeds and maintains 4 based on 24 hours (gastric pH; Day 1, 25 mg once a day orally)","HTR > pH4 (%) Mean: time for which pH of gastric fluid exceeds and maintains 4 based on 24 hours (gastric pH; Day 7, 25 mg once a day orally for seven days)","average of time for which the gastric pH exceeds 4 (Time pH>4, %) (gastric pH; from day 1 after the administration, 25 mg, observed for 24 hours)"
"Cc1c(OCC(F)(F)F)ccnc1C[S+]([O-])c1nc2ccccc2[nH]1 (stereo not shown) [lansoprazole, reference compound]",only one subject among the total 37 subjects,had not experienced symptoms of heartburn and gastric acid reflux,,,,,,
"Cc1nc2cc(C(=O)N(C)C)cc(O[C@H]3CCOc4cc(F)cc(F)c43)c2[nH]1 [tegoprazan, (S)-4-(5,7-difluorochroman-4-yloxy)-N,N,2-trimethyl-1H-benzo[d]imidazole-6-carboxamide]",only one subject among the total 37 subjects,had not experienced symptoms of heartburn and gastric acid reflux,demonstrated a maintenance effect,A maintenance effect was observed,effectively inhibits the recurrence of gastroesophageal reflux disease,40.6%,56.6%,at least 40%
